Source: patent US20240082282A1 (priority 2020, published 2024)
Values after ≈ are worked out from the molar mass of the structure shown.

Legend:
[1] = test system: Bacteroides vulgatus KLE 2381; type: cell-based; conditions: Phocaeicola vulgatus, KLE2381; Bacteroides vulgatus KLE 2381, anaerobic, stool isolate; read-out: Minimum inhibitory concentration (MIC)
[2] = test system: Clostridium tertium KLE 2303; type: cell-based; conditions: KLE2303; Clostridium tertium KLE 2303, anaerobic, stool isolate; read-out: Minimum inhibitory concentration (MIC)
Escherichia coli MG1655 = type: cell-based; conditions: read-out: Minimum inhibitory concentration (MIC)
[3] = test system: Shigella sonnei ATCC 25931; type: cell-based; conditions: ATCC25931; Shigella sonnei ATCC 25931, anaerobic; read-out: Minimum inhibitory concentration (MIC)
Borreliella miyamotoi = conditions: Borreliella, read-out: Minimum inhibitory concentration (MIC)
Borrelia afzelii = conditions: Borreliella afzelii, read-out: Minimum inhibitory concentration (MIC)
Borrelia bavariensis = conditions: Borreliella bavariensis, read-out: Minimum inhibitory concentration (MIC)
Borrelia garinii = conditions: Borreliella garinii, read-out: Minimum inhibitory concentration (MIC)
[4] = test system: Borreliella burgdorferi N40; conditions: Borreliella burgdorferi, N40, read-out: Minimum inhibitory concentration (MIC)
[5] = test system: Streptococcus salivarius KLE 2370; type: cell-based; conditions: KLE2370; Streptococcus salivarius KLE 2370, anaerobic, stool isolate; read-out: Minimum inhibitory concentration (MIC)
[6] = test system: Bacteroides eggerthii KLE 2382; type: cell-based; conditions: KLE2382; Bacteroides eggerthii KLE 2382, anaerobic, stool isolate; read-out: Minimum inhibitory concentration (MIC)
[7] = test system: Enterobacter cloacae ATCC 13047; type: cell-based; conditions: ATCC13047; Enterobacter cloacae ATCC 13047, anaerobic; read-out: Minimum inhibitory concentration (MIC)
[8] = test system: Borrelia turcica DSM 16138; conditions: Borrelia turcica, DSM16138, read-out: Minimum inhibitory concentration (MIC)
[9] = test system: Salmonella typhimurium LT2 ATCC 19585; type: cell-based; conditions: Salmonella enterica; Salmonella typhimurium LT2 ATCC 19585, anaerobic; read-out: Minimum inhibitory concentration (MIC)
[10] = test system: Staphylococcus epidermidis KLE 2378; type: cell-based; conditions: KLE2378; Staphylococcus epidermidis KLE 2378, anaerobic, stool isolate; read-out: Minimum inhibitory concentration (MIC)
[11] = test system: Parabacteroides merdae KLE 2238; type: cell-based; conditions: KLE2238; Parabacteroides merdae KLE 2238, anaerobic, stool isolate; read-out: Minimum inhibitory concentration (MIC)
[12] = test system: Streptococcus sanguinis KLE 2374; type: cell-based; conditions: KLE2374; Streptococcus sanguinis KLE 2374, anaerobic, stool isolate; read-out: Minimum inhibitory concentration (MIC)
[13] = test system: Bacteroides xylanisolvens KLE 2305; type: cell-based; conditions: KLE2305; Bacteroides xylanisolvens KLE 2305, anaerobic, stool isolate; read-out: Minimum inhibitory concentration (MIC)
[14] = test system: Bacteroides nordii KLE 2369; type: cell-based; conditions: KLE2369; Bacteroides nordii KLE 2369, anaerobic, stool isolate; read-out: Minimum inhibitory concentration (MIC)
[15] = test system: Lactobacillus reuteri ATCC 23272; type: cell-based; conditions: Limosilactobacillus reuteri, ATCC23272; Lactobacillus reuteri ATCC 23272, anaerobic; read-out: Minimum inhibitory concentration (MIC)
[16] = test system: Leptospira biflexa ATCC 23582; conditions: Leptospira biflexa, ATCC23582, read-out: Minimum inhibitory concentration (MIC)
[17] = test system: Bacteroides ovatus KLE 2306; type: cell-based; conditions: KLE2306; Bacteroides ovatus KLE 2306, anaerobic, stool isolate; read-out: Minimum inhibitory concentration (MIC)
[18] = test system: Bifidobacterium longum ATCC BAA-999; type: cell-based; conditions: ATCCBAA999; Bifidobacterium longum ATCC BAA-999, anaerobic; read-out: Minimum inhibitory concentration (MIC)
[19] = test system: Enterococcus faecalis KLE 2341; type: cell-based; conditions: KLE2341; Enterococcus faecalis KLE 2341, anaerobic, stool isolate; read-out: Minimum inhibitory concentration (MIC)
murine gut microbiome = assay: Impact on the murine fecal microbiome (16S rRNA sequencing); conditions: mouse, in vivo
Procedure: Stool samples were collected and V4 region of the 16s rRNA gene was amplified using primers and sequenced (IonTorrent).
Fecal pellets were collected 3 days before and 3 days after antibiotic treatment and were stored at −80° C. in PBS. Sequencing of a stool pellet from each mouse from before and after treatment was performed by MR DNA (www.mrdnalab.com, Shallowater, TX, USA) on an Ion Torrent PGM. Using PCR primers, the V4 variable region of the 16SrRNA gene was amplified in a single-step 30 cycle PCR with the HotStarTaq Plus Master Mix Kit (Qiagen, USA). The following conditions were used: 94° C. for 3 minutes and 30 cycles of 94° C. for 30 seconds, 53° C. for 40 seconds and 72° C. for 1 minute, then a final elongation step for 5 minutes at 72° C. […] Barcodes and primers and then sequences<150 bp were removed. Further, sequences with homopolymer runs exceeding 6 bp and sequences with ambiguous calls were removed. The sequences were then denoised, OTUs were generated, and chimeras were removed; OTUs were clustered at 3% divergence. Taxonomic classification was performed using BLASTn against a database derived from RDPII available at www.rdp.cme.msu.edu) and NCBI (www.ncbi.nlm.nih.gov). The change in relative abundance of the most abundant genera from before to after treatment of each individual mouse was reported. Further, raw sequences were processed in Qiita (Gonzalez, A., et al. (2018). Nat Methods 15, 796-798; the contents of which are herein incorporated by reference in its entirety) and were demultiplexed, trimmed to 100 bp, and closed reference OTU picking was performed against the Greengenes database at 97% similarity (McDonald, D. et al. (2012). ISME J 6, 610-618; the contents of which are herein incorporated by reference in its entirety). The alpha diversity based on the Simpson index was calculated in Qiita. The change in the Simpson index was calculated for the fecal microbiome of each mouse from before to after treatment. Statistical significance was calculated using a one-way ANOVA with Tukey's multiple comparisons test (p<0.05).

[20] = test system: Borreliella burgdorferi B31; conditions: Borreliella burgdorferi, B31, read-out: Minimum inhibitory concentration (MIC)
[21] = test system: Streptococcus parasanguinis KLE 2375; type: cell-based; conditions: KLE2375; Streptococcus parasanguinis KLE 2375, anaerobic, stool isolate; read-out: Minimum inhibitory concentration (MIC)

CC1(C)S[C@@H]2[C@H](NC(=O)[C@H](N)c3ccc(O)cc3)C(=O)N2[C@H]1C(=O)O [Amoxicillin]
MIC [1]: 128 µg/mL (≈ 350 µM) | MIC [2]: 32 µg/mL (≈ 87.6 µM) | MIC (Escherichia coli MG1655): 16 µg/mL (≈ 43.8 µM) | MIC [3]: 2 µg/mL (≈ 5.47 µM) | MIC (Borreliella miyamotoi): 0.12 µg/mL (≈ 0.328 µM) | MIC (Borrelia afzelii): 0.01 µg/mL (≈ 0.0274 µM) | MIC (Borrelia bavariensis): 0.06 µg/mL (≈ 0.164 µM) | MIC (Borrelia garinii): 0.12 µg/mL (≈ 0.328 µM) | MIC [4]: 0.12 µg/mL (≈ 0.328 µM) | MIC [5]: 0.06 µg/mL (≈ 0.164 µM) | MIC [6]: 0.5 µg/mL (≈ 1.37 µM) | MIC [7]: > 128 µg/mL | MIC [8]: 0.25 µg/mL (≈ 0.684 µM) | MIC [9]: 16 µg/mL (≈ 43.8 µM) | MIC [10]: > 128 µg/mL | MIC [11]: 1 µg/mL (≈ 2.74 µM) | MIC [12]: 2 µg/mL (≈ 5.47 µM) | MIC [13]: 32 µg/mL (≈ 87.6 µM) | MIC [14]: 32 µg/mL (≈ 87.6 µM) | MIC [15]: 4 µg/mL (≈ 10.9 µM) | MIC [16]: 8 µg/mL (≈ 21.9 µM) | MIC [17]: 0.5 µg/mL (≈ 1.37 µM) | MIC [18]: 1 µg/mL (≈ 2.74 µM) | MIC [19]: 0.5 µg/mL (≈ 1.37 µM) | Bloom of Bacteroides (murine gut microbiome): produced a bloom of Bacteroides | Changes in the composition of the microbiota (murine gut microbiome): significant changes | Mice with Enterococcaceae blooms (murine gut microbiome): 4/5 | MIC [20]: 0.25 µg/mL (≈ 0.684 µM) | MIC [21]: 64 µg/mL (≈ 175 µM)

CO/N=C(\C(=O)N[C@@H]1C(=O)N2C(C(=O)O)=C(CSc3nc(=O)c(=O)[nH]n3C)CS[C@H]12)c1csc(N)n1 [Ceftriaxone]
MIC [1]: 128 µg/mL (≈ 231 µM) | MIC [2]: 1 µg/mL (≈ 1.8 µM) | MIC (Escherichia coli MG1655): 0.06 µg/mL (≈ 0.108 µM) | MIC [3]: 0.25 µg/mL (≈ 0.451 µM) | MIC (Borreliella miyamotoi): 0.01 µg/mL (≈ 0.018 µM) | MIC (Borrelia afzelii): < 0.01 µg/mL | MIC (Borrelia bavariensis): 0.01 µg/mL (≈ 0.018 µM) | MIC (Borrelia garinii): 0.01 µg/mL (≈ 0.018 µM) | MIC [4]: 0.01 µg/mL (≈ 0.018 µM) | MIC [5]: 0.03 µg/mL (≈ 0.0541 µM) | MIC [7]: 64 µg/mL (≈ 115 µM) | MIC [8]: 0.06 µg/mL (≈ 0.108 µM) | MIC [9]: 0.25 µg/mL (≈ 0.451 µM) | MIC [10]: 1 µg/mL (≈ 1.8 µM) | MIC [11]: 0.25 µg/mL (≈ 0.451 µM) | MIC [12]: 0.12 µg/mL (≈ 0.216 µM) | MIC [13]: 64 µg/mL (≈ 115 µM) | MIC [14]: 1 µg/mL (≈ 1.8 µM) | MIC [15]: 32 µg/mL (≈ 57.7 µM) | MIC [16]: 2 µg/mL (≈ 3.61 µM) | MIC [17]: 0.02 µg/mL (≈ 0.0361 µM) | MIC [18]: 4 µg/mL (≈ 7.21 µM) | MIC [19]: > 128 µg/mL | Mice with Enterococcaceae blooms (murine gut microbiome): 5/5 | MIC [20]: 0.01 µg/mL (≈ 0.018 µM) | MIC [21]: 0.06 µg/mL (≈ 0.108 µM)

C[C@H]1c2cccc(O)c2C(=O)C2=C(O)[C@]3(O)C(=O)C(C(N)=O)=C(O)[C@@H](N(C)C)[C@@H]3[C@@H](O)[C@@H]21 [Doxycycline]
MIC [1]: 1 µg/mL (≈ 2.25 µM) | MIC [2]: 0.03 µg/mL (≈ 0.0675 µM) | MIC (Escherichia coli MG1655): 2 µg/mL (≈ 4.5 µM) | MIC [3]: 4 µg/mL (≈ 9 µM) | MIC (Borreliella miyamotoi): 0.12 µg/mL (≈ 0.27 µM) | MIC (Borrelia afzelii): 0.12 µg/mL (≈ 0.27 µM) | MIC (Borrelia bavariensis): 0.12 µg/mL (≈ 0.27 µM) | MIC (Borrelia garinii): 0.12 µg/mL (≈ 0.27 µM) | MIC [4]: 0.25 µg/mL (≈ 0.563 µM) | MIC [5]: 0.12 µg/mL (≈ 0.27 µM) | MIC [6]: 0.01 µg/mL (≈ 0.0225 µM) | MIC [7]: 8 µg/mL (≈ 18 µM) | MIC [8]: 0.25 µg/mL (≈ 0.563 µM) | MIC [9]: 8 µg/mL (≈ 18 µM) | MIC [10]: 0.5 µg/mL (≈ 1.13 µM) | MIC [11]: 0.06 µg/mL (≈ 0.135 µM) | MIC [12]: 0.25 µg/mL (≈ 0.563 µM) | MIC [13]: 0.5 µg/mL (≈ 1.13 µM) | MIC [14]: 0.25 µg/mL (≈ 0.563 µM) | MIC [15]: 8 µg/mL (≈ 18 µM) | MIC [16]: 2 µg/mL (≈ 4.5 µM) | MIC [17]: 0.01 µg/mL (≈ 0.0225 µM) | MIC [18]: 0.25 µg/mL (≈ 0.563 µM) | MIC [19]: 0.5 µg/mL (≈ 1.13 µM) | MIC [20]: 0.25 µg/mL (≈ 0.563 µM) | MIC [21]: 4 µg/mL (≈ 9 µM)
